Laboratory results as given in patent publication US4277479A, “Tetrazolylalkoxycarbostyril derivatives and pharmaceutical compositions containing them” (Otsuka Pharmaceutical Co., Ltd., priority 1978, dated 1981).

Molecular target: T1, cyclic AMP phosphodiesterase (Oryctolagus cuniculus, UniProt G1ST54)
T1 construct: the supernatant was collected to use it as a crude enzyme solution; from tissue; host or cells: rabbit platelets (from platelet-rich plasma)
T1 sequence (G1ST54 1-1128): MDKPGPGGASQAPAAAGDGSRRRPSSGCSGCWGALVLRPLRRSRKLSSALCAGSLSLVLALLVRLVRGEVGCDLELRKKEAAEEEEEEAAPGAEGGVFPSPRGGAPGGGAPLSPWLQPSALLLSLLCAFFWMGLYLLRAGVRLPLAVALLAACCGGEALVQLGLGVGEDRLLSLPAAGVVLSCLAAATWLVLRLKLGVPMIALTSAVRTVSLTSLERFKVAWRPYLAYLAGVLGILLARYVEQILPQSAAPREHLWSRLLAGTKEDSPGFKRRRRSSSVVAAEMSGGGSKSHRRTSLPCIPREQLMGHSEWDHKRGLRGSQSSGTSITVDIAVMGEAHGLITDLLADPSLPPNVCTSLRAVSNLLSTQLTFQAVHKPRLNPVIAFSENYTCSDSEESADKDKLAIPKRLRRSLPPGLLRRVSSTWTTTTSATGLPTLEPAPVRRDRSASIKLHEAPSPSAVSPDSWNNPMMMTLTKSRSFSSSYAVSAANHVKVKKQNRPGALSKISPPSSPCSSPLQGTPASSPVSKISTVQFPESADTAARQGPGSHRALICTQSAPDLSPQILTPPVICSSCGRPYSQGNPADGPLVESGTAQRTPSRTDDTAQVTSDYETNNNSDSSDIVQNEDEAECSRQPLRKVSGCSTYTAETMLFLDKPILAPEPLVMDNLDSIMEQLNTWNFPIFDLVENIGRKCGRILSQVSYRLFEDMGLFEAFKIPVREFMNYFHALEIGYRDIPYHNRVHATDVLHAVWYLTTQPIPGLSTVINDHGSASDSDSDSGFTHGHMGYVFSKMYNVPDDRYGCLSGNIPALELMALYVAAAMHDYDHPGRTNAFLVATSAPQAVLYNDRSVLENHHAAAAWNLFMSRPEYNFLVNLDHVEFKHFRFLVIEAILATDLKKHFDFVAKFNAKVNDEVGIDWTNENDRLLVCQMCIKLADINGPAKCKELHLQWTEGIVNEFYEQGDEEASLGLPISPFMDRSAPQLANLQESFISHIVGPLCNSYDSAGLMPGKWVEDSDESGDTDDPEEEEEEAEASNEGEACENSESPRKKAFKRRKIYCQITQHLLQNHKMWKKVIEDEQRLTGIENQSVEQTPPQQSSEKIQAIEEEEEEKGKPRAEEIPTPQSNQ
Test: Obstructive action against cyclic AMP phosphodiesterase
Assay type: biochemical, rabbit
Conditions: 0.4 μmol cyclic AMP, read-out: Phosphodiesterase obstruction rate; for inhibition at 1 µM: concentration of test compound solution 10^-6 mole; for inhibition: concentration of test compound solution 10^-7 mole; for inhibition at 0.01 µM: concentration of test compound solution 10^-8 mole; for inhibition at 0.001 µM: concentration of test compound solution 10^-9 mole
Procedure: (Test of obstructive action against cyclic AMP phosphodiesterase)
The obstructive action against cyclic AMP phosphodiesterase was measured according to the activity measuring method described in "Biochimica et Biophysica Acta", Vol. 429, pp. 485-497 (1976) and "Biochemical Medicine", Vol. 10, pp. 301-311 (1974).
That is, for determining the obstructive activity against cyclic AMP phosphodiesterase, 10 ml of a solution obtained by adding 1 mmol of MgCl2 into 50 mmol of tris-hydrochloric acid buffer with pH 7.4 was added to the platelets obtained by further centrifuging the above-said rabbit PRP at 3,000 r.p.m. for 10 minutes, and the suspended platelets were ground by a Teflon potter type homogenizer. This was followed by two times of freezing and thawing treatment and 300-second fracturing with 200 watt supersonic waves. After additional 60-minute centrifugation with 100,000 g, the supernatant was collected to use it as a crude enzyme solution.
10 Milliliters of this crude buffer solution was added to a 1.5×20 cm DEAE-cellulose column which has previously been buffered with 50 mmol of tris-acetate buffer (pH 6.0), followed by washing and elution with 30 ml of 50 mmol tris-acetate buffer, and this buffer solution was subjected to linear gradient elution with 0 to 1 moles of sodium acetate-tris-acetate buffer. The flow rate was 0.5 ml/min, and 5 ml of each fraction was batched out. […] This fraction was used as cyclic AMP phosphodiesterase.
0.1 Milliliter of an aqueous solution of each test compound of a specified concentration was mixed with 40 mmol of tris-hydrochloric acid buffer (pH 8.0, containing 50 μg of cow serum albumin and 4 mmol of MgCl2) containing predetermined 0.4 μmol of cyclic AMP (tritium cyclic AMP), and 0.2 ml of this mixed solution was used as a substrate solution.
0.2 Milliliter of the above-prepared cyclic AMP phosphodiesterase of a predetermined concentration was added to said substrate solution and the mixture was reacted at 30° C. for 20 minutes, producing tritium 5'-AMP from the tritium cyclic AMP.
The reaction system was then immersed in boiling water for 2 minutes to stop the reaction, and then this reaction solution was cooled in ice water and, for converting the produced tritium 5'-AMP into tritium adenosine, the solution was added with 0.05 ml (1 mg/ml) of snake poison as 5'-nucleotidase and reacted at 30° C. for 10 minutes. The whole amount of this reaction solutions was then added to a cation exchange resin (AG 500 W×4, 200-400 meshes, manufactured by Bio-Rad Co., column size: 0.5×1.5 cm), and the produced tritium anodesine alone was allowed to combine, washed with 6 ml of distilled water and eluted with 1.5 ml of 3 N-ammonia water. The whole quantity of the elutant was added with 10 ml of a triton-toluene type scintillator and the produced tritium adenosine was measured by a liquid scintillation counter to determine the phosphodiesterase activity.
In this way, the phosphodiesterase activation value (Vs) of the test compounds of the respective concentrations was determined, and the phosphodiesterase obstruction rate (%) was determined from said activation value (Vs) and control value (Vc) (obtained from water not containing any test compound) from the following formula: [formula]

Structure (SMILES) | inhibition at 1 µM [%] | inhibition [%] | inhibition at 0.01 µM [%] | inhibition at 0.001 µM [%]
O=c1ccc2cc(OCCCc3nnnn3C3CCCCCCC3)ccc2[nH]1 [Compound 6, 6-[3-(1-Cyclooctyltetrazol-5-yl)propoxy]carbostyril] | 88.4 | 79.6 | 57.4 | 36.5
O=c1ccc2cc(OCCCCc3nnnn3C3CCCCC3)ccc2[nH]1 [Compound 7, 6-[4-(1-Cyclohexyltetrazol-5-yl)butoxy]carbostyril] | – | 98.4 | 68.3 | 50.6
O=c1ccc2cc(OCCCc3nnnn3C3CCCCC3)ccc2[nH]1 [Compound 1, 6-[3-(1-Cyclohexyltetrazol-5-yl)propoxy]carbostyril] | 92.9 | 83.8 | 58.4 | 44.7
O=c1ccc2cc(OCCCc3nnnn3CC3CCCCC3)ccc2[nH]1 [Compound 5, 6-[3-(1-Cyclohexylmethyltetrazol-5-yl)propoxy]carbostyril] | 89.9 | 73.4 | 55.2 | 38.6
